US10543159B2, “Hair papilla cell activator” (Ezaki Glico Co., Ltd., priority 2014, dated 2020)
Where a name gives a salt, the structure may show the parent alone.

What was measured:
[1] = system: human follicle dermal papilla cells; assay: Follicle dermal papilla cell proliferation, Cell Counting Kit-F cell count (Example 2); assay type: cell-based
Description: A strain (Lot. 3092504.12) sold by PromoCell (Germany) was used as human follicle dermal papilla cells. The cells were cultured in a CO2 incubator at 37° C., using a special medium for follicle dermal papilla cells (PromoCell), unless otherwise indicated. Cell subculturing was performed as follows: cells were seeded at 5000 to 10000 cells/cm^2 in an uncoated dish, and when the cells reached subconfluent, they were treated with trypsin-EDTA (0.03%) and detached, and then re-seeded. […] The medium was replaced about once every 3 days.
1. The procedures (1) and (3) to (5) in Example 1 were performed in the same manner as described above. Solutions of the compositions shown in the following table were prepared in a concentration series starting from a 10% (w/v) aqueous solution of POs-Ca (R), a 12.9% (w/v) aqueous solution of G1P-Ca, a 1.84% (w/v) aqueous solution of CaCl2.2H2O, or a 10% (w/v) aqueous solution of POs-Na.
2. In place of the conditions ((6), (7) and (8)) in Example 1, Cell Counting Kit-F (Dojindo Molecular Technologies, Inc.) was added to each well in accordance with the manual, and the number of cells was counted.

VEGF [2] = assay: Expression rate of VEGF among acidic saccharide salts, quantitative PCR (Example 6); assay type: cell-based, human; settings: Example 6: solutions (b)-(h) of b288 mixed 1:9 with DMEM, GAPDH reference, mean of 4 PCR assays
Description: (§1) (1) 500 μl of a special medium in which 2×10^4 cells/ml of follicle dermal papilla cells were suspended was dispensed into a type I collagen-coated 24-well cell culture plate (Corning), and cultured at a cell density of 5×10^3 cells/cm^2 at 37° C. for 72 hours. […] Oji Cornstarch Co., Ltd.), (f) a 2.5% (w/v) aqueous solution of a phosphorylated oligosaccharide magnesium salt (POs-Mg; […] (3) Each of the solutions (a) to (c) was mixed with DMEM high glucose (Sigma, USA) at a ratio of 1:9. (4) Following the procedures (4) to (6) in Example 2, mRNA was extracted from the cells, cDNA was prepared, and then the expression levels of the VEGF, FGF-7, and GAPDH genes were quantified by quantitative PCR. (7) Using GAPDH as a reference gene, a comparative analysis of expression levels was performed with the analysis software (Bio-Rad CFX Manager 3.0) included in CFX96Touch. The expression levels were calculated under the default conditions of the software.

FGF-7 [3] = assay: Expression rate of FGF-7 among acidic saccharide salts, quantitative PCR (Example 6); assay type: cell-based, human; settings: Example 6: solutions (b)-(h) of b288 mixed 1:9 with DMEM, GAPDH reference, mean of 4 PCR assays
Description: as §1

FGF7 and VEGF = assay: Gene expression with POs-Ca (R) combined with general hair-restoration components (Example 8); assay type: cell-based, human; settings: 0.25% POs-Ca (R) with 0.25% glycyrrhizinate dipotassium, 1% tocopherol acetate, 0.125% pantothenyl ethyl ether or 1% Swertia japonica; two wells
Description: (1) Glycyrrhizinate dipotassium (for biochemical use) from Wako Pure Chemical Industries, Ltd. was diluted to 20% (w/v) with water, and sterilized by being passed through a 0.20-μm filter (Minisart, surfactant-free cellulose acetate, Sartorius Stedim Biotech, US) with a 10-ml syringe (Terumo Corporation), and the resulting product was diluted with sterilized water, as required, and used.
(2) (±)-α-Tocopherol acetate (first grade) from Wako Pure Chemical Industries, Ltd., as tocopherol acetate, and DL-pantothenyl ethyl ether from Santa Cruz Biotechnology, as pantothenyl ethyl ether, were each diluted 5-fold to 20% (v/v) with ethanol, and diluted with sterilized water, as required, and used.
(3) A water-ethanol solution of Swertia japonica extract from Senken Co., Ltd., as a 100% (v/v) extract, was diluted with sterilized water, as required, and used.
(1) 500 μl of a special medium in which 2×10^4 cells/ml of follicle dermal papilla cells were suspended was dispensed into a type I collagen-coated 24-well cell culture plate (Corning), and cultured at a cell density of 5×10^3 cells/cm^2 at 37° C. for 96 hours, until the cells reached subconfluent. […]
(3) Two wells were used for culturing each of the DMEM solutions containing (a) to (i). The expression levels of FGF7 and VEGF were analyzed as in (3) to (8) of Example 3, and the average values of the two wells were compared.

FGF-7 [4] = assay: Quantitative PCR gene expression in follicle dermal papilla cells: FGF-7; assay type: cell-based, human; settings: 37° C., 5 hours
Description: (§2) (1) 500 μl of a special medium in which 4×10^4 cells/ml of follicle dermal papilla cells were suspended was dispensed into a type I collagen-coated 24-well cell culture plate (Corning), and cultured at a cell density of 1.0×10^4 cells/cm^2 at 37° C. for 42 hours. […] Each of the solutions (a) to (c) was mixed with DMEM high glucose (Sigma, USA) at a ratio of 1:9.
(§3) (3) The medium was aspirated from each well obtained in (1), the well was washed by adding 1 ml of 1×PBS (137 mM NaCl, 8.1 mM Na2HPO4, 2.68 mM KCl, 1.47 mM KH2PO4 (pH 7.4); Wako Pure Chemical Industries, Ltd.), and aspirating the PBS, 500 μl of DMEM high glucose was added, and the cells were incubated in a CO2 incubator at 37° C. for 5 hours. […]
(6) 0.5 μl of each of cDNA solutions diluted 2-fold with water, 1 μl of a solution containing 4 μM of each of primers 1 and 2 for each of the genes shown in Table 2, 5 μl of SYBR Premix Ex Taq II (Takara), and 3.5 μl of water were added, and quantitative PCR was performed on each of the genes. […] Fluorescence intensity after each cycle was measured.
(§4) (7) Using PGK1 and GAPDH as reference genes, a comparative analysis of expression levels was performed with the analysis software (Bio-Rad CFX Manager 3.0) included in CFX96Touch. Relative expression levels were calculated under the default conditions of the software. […]

Wnt5a = assay: Quantitative PCR gene expression in follicle dermal papilla cells: Wnt5a; assay type: cell-based, human; settings: 37° C., 5 hours
Description: as §2, §3
(4) The medium was removed from each well, and then mRNA was extracted using CellAmp Direct RNA Prep Kit for RT-PCR (Takara). The method was performed in accordance with the manual for the kit.
(5) 8 μl of the extracted mRNA solution (200 μl for each well) was used, and cDNA was obtained by the reverse transcription reaction at a scale of 40 μl, using PrimeScript RT Master Mix (Takara). The reaction conditions were as set forth in the manual for the kit.
(6) 0.5 μl of each of cDNA solutions diluted 2-fold with water, 1 μl of a solution containing 4 μM of each of primers 1 and 2 for each of the genes shown in Table 2, 5 μl of SYBR Premix Ex Taq II (Takara), and 3.5 μl of water were added, and quantitative PCR was performed on each of the genes. Using CFX96 Touch (BIO-RAD, USA), denaturation treatment at 95° C. for 30 seconds was performed, and then a two-step cycle at 95° C. for 5 seconds and at 62° C. for 20 seconds was performed for 65 cycles. Fluorescence intensity after each cycle was measured.
as §4

VEGF [5] = assay: Quantitative PCR gene expression in follicle dermal papilla cells: VEGF; assay type: cell-based, human; settings: Example 5: 0.25% POs-Ca (R), 50 μM adenosine or both; DMEM serum-free, 37° C., 5 hours; Dunnett p<0.05, n=8
[6] = Example 7: 0.25% POs-Mg or MgCl2.6H2O with equivalent magnesium, DMEM, Dunnett p<0.05
[7] = Example 5: 0.25% POs-Ca (R), 50 μM adenosine or both, DMEM serum-free, Dunnett p<0.05, n=8

## O=P(O)(O)OC1O[C@H](CO)[C@@H](O)[C@H](O)[C@H]1O (some centres unmarked) [G1P-Ca, glucose-1-phosphate calcium salt]
[1]; FIG. 1B-1D legends, Dunnett p<0.05
  working concentrations having the effect of proliferating follicle dermal papilla cells: over 0.3%
[1]; concentration series of Table 1A, 3 days
  number of cells compared to that without addition: increased at all concentrations
VEGF [2]; calcium salt
  VEGF, relative values of the expression levels based on the control as 1: induced an increase
VEGF [2]; listed as G1P—Ca, calcium salt
  VEGF, relative values of the expression levels based on the control as 1: 1.46
FGF-7 [3]; calcium salt
  FGF7, relative values of the expression levels based on the control as 1: induced an increase
FGF-7 [3]; listed as G1P—Ca, calcium salt
  FGF7, relative values of the expression levels based on the control as 1: 1.10

## O=C([O-])[C@H](O)[C@@H](O)[C@H](O[C@@H]1O[C@H](CO)[C@H](O)[C@H](O)[C@H]1O)[C@H](O)CO.O=C([O-])[C@H](O)[C@@H](O)[C@H](O[C@@H]1O[C@H](CO)[C@H](O)[C@H](O)[C@H]1O)[C@H](O)CO.[Ca+2] [Lactobio-Ca, calcium lactobionate]
VEGF [2]
  VEGF, relative values of the expression levels based on the control as 1: 1.48
VEGF [2]; listed as calcium lactobionate
  VEGF, relative values of the expression levels based on the control as 1: induced an increase
FGF-7 [3]
  FGF7, relative values of the expression levels based on the control as 1: 1.35
FGF-7 [3]; listed as calcium lactobionate
  FGF7, relative values of the expression levels based on the control as 1: induced an increase

## CC1(C)[C@@H](O[C@H]2O[C@H](C(=O)O)[C@@H](O)[C@H](O)[C@H]2O[C@@H]2O[C@H](C(=O)O)[C@@H](O)[C@H](O)[C@H]2O)CC[C@]2(C)[C@H]3C(=O)C=C4[C@@H]5C[C@@](C)(C(=O)O)CC[C@]5(C)CC[C@@]4(C)[C@]3(C)CC[C@@H]12 [glycyrrhizinate dipotassium, Glycyrrhizinate dipotassium]
FGF7 and VEGF
  synergistic effect with POs-Ca (R) on expression of FGF7 and VEGF: None

## CC(=O)Oc1c(C)c(C)c2c(c1C)CCC(C)(CCC[C@H](C)CCC[C@H](C)CCCC(C)C)O2 (mixture of isomers) [tocopherol acetate, (±)-α-Tocopherol acetate]
FGF7 and VEGF
  synergistic effect with POs-Ca (R) on expression of FGF7 and VEGF: None

## magnesium chloride hexahydrate [general magnesium]
FGF-7 [4]; [6]
  expression of FGF7: not observed
Wnt5a; [6]
  expression of WNTSA: not observed

## Nc1ncnc2c1ncn2[C@@H]1O[C@H](CO)[C@@H](O)[C@H]1O [adenosine]
FGF-7 [4]; [7]
  expression of FGF7 compared to without treatment: significant difference
VEGF [5]
  expression of VEGF compared to without treatment: significant difference
Wnt5a; [7]
  expression of WNTSA (Wnt5a) compared to without treatment: significant difference
